Measured values published in PMC11440465, “Detection of Sulfonamide Antibiotics Using an Elastic Hydrogel Microparticles-Based Optical Biosensor” (ACS Applied Materials & Interfaces, 2024).

Molecular target: T1, Dihydropteroate synthase (DHPS) (Streptococcus pneumoniae, UniProt P05382)
T1 construct: gene sulA; dimer; immobilized on PEMA or POMA coated glass
Assay: competitive hydrogel microparticle (SCP) binding assay, RICM contact area
Details: DHPS immobilized on PEMA-coated glass; 0.1 M MOPS pH 6.0, 5 mM MgCl2, 600 uM pyrophosphate, room temperature; competes with SMX derivative on microparticles

T1 sequence (P05382 whole entry): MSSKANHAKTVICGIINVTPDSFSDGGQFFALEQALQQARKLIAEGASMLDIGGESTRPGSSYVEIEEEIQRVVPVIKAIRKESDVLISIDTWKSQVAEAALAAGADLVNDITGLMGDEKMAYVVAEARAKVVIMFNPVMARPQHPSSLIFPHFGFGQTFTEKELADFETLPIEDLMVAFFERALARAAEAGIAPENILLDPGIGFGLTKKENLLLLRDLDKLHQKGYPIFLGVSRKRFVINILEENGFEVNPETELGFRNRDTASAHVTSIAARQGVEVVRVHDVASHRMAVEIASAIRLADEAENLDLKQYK

% decrease of SCP contact area diameter at 1 mM: > 50%
Compound: Cc1cc(NS(=O)(=O)c2ccc(N)cc2)no1 [SMX, sulfamethoxazole]
